Biological target: T1, Axl (Homo sapiens, UniProt P30530)
T1 construct: endogenous in cells; host or cells: HeLa cells
T1 sequence (P30530 26-894): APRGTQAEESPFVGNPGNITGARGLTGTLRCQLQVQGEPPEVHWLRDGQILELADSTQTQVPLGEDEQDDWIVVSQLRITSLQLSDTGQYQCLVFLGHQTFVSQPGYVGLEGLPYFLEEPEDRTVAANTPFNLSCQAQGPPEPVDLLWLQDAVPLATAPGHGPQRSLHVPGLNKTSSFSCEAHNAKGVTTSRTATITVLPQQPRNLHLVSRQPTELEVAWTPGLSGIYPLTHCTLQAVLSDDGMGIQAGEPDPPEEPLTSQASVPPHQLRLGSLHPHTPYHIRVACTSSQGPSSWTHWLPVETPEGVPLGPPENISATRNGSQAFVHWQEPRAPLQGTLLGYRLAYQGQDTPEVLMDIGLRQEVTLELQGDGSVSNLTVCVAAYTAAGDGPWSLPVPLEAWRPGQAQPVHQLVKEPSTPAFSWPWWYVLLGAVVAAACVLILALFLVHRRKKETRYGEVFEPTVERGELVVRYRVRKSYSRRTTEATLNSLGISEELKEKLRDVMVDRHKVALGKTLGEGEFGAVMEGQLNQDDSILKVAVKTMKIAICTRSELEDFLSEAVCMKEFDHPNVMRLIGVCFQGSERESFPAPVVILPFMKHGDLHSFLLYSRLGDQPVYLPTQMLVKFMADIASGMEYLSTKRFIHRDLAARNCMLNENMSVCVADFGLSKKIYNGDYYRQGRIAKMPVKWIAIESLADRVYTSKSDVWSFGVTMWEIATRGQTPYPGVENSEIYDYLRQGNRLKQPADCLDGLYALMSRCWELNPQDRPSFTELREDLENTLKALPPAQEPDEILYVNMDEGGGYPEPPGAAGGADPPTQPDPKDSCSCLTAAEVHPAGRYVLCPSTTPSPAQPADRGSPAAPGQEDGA
Assay: Phospho-Akt in-cell Western assay (inhibition of Axl activity)
Type: cell-based
Summary of the method: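 HeLa cells on poly-L-lysine, starved 24 h in 0.5% FCS DMEM with Axl/Fc 500 ng/mL, pre-treated with compound 1 h at 37° C. Axl stimulated 5 min by anti-Axl/anti-mouse antibody cross-linking. Fixed cells probed with anti-phospho-Akt and HRP secondary, chemiluminescence read.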

[1] = Table 3, Hela cells, Axl antibody cross-linking stimulation, phospho-Akt chemiluminescence
[2] = Table 5, Hela cells, Axl antibody cross-linking stimulation, phospho-Akt chemiluminescence
[3] = Table 2, Hela cells, Axl antibody cross-linking stimulation, phospho-Akt chemiluminescence
[4] = inhibition of Axl activity, Table 1

With `Nc1nc(Nc2ccc(OCCN3CCCC3)cc2)nn1C(=O)c1ccccn1` [compound 203, 5-amino-1-(pyridin-2-yl)carbonyl-3-[4-[2-(pyrrolidin-1-yl)ethoxy]phenylamino]-1H-1,2,4-triazole] as the compound, how does the IC50 [1] read?
The IC50 was over 20 µM.

With `Nc1nc(Nc2ccc(OCCN3CCCC3)cc2)nn1C(=O)c1ccncc1` [compound 204, 5-amino-1-(pyridin-4-yl)carbonyl-3-[4-[2-(pyrrolidin-1-yl)ethoxy]phenylamino]-1H-1,2,4-triazole] as the compound, how does the IC50 [1] read?
Its IC50 is over 20 µM.

`Cc1cccc(C(=O)n2nc(Nc3ccc4c(c3)N(C(=O)OC(C)(C)C)CCO4)nc2N)c1` [compound 206, 5-amino-3-[(2H,3H-4-tert-butoxycarbonylbenzo[1,4]oxazin-6-yl)amino]-1-(3-methylphenyl)carbonyl-1,2,4-triazole] was tested. Which IC50 [2] did it give?
Its IC50 is over 20 µM.

Which IC50 [2] does the source give for `Cc1cccc(C(=O)n2nc(Nc3ccc4oc(C(=O)NCCOC5CCCCO5)cc4c3)nc2N)c1` (stereo not drawn) [compound 207, 5-amino-1-(3-methylphenyl)carbonyl-3-[2-[N-[2-(tetrahydropyran-2-yloxy)ethyl]amino]carbonylbenzofuran-5-yl]amino-1H-1,2,4-triazole] here?
Its IC50 is 1 to 10 µM.

For `Cc1cccc(C(=O)n2nc(Nc3ccc4oc(C(=O)NCCO)cc4c3)nc2N)c1` [compound 208, 5-amino-3-[2-[2-hydroxyethylaminocarbonyl]benzofuran-5-yl]amino-1-(3-methylphenyl)carbonyl-1H-1,2,4-triazole], which IC50 [2] is on record?
Its IC50 is 1 to 10 µM.

With `Nc1nc(Nc2ccc3c(c2)OCCO3)n(C(=O)c2cccc(OCCC3OCCO3)c2)n1` [compound 209] as the compound, how does the IC50 [3] read?
Its IC50 is over 20 µM.

How did the IC50 [4] turn out when `Nc1nc(Nc2ccc3c(c2)OCCO3)nn1C(=O)c1cccc(OCCC2OCCO2)c1` [compound 210] was run?
The IC50 was 1 to 10 µM.

For `Cc1ccc(C(=O)n2nc(Nc3ccccc3O)nc2N)cc1` [compound 211, 5-amino-3-[2-(hydroxyl)phenylamino]-1-(4-methylphenyl)carbonyl-1H-1,2,4-triazole], which IC50 [4] is on record?
The IC50 was over 20 µM.

How did the IC50 [4] turn out when `COCCOCOc1cccc(Nc2nc(N)n(C(=O)c3cccc(C)c3)n2)c1` [compound 212, 5-amino-1-(3-methylphenyl)carbonyl-3-[3-[(2-methoxyethoxy)methoxy]phenylamino]-1H-1,2,4-triazole] was run?
The IC50 was 1 to 10 µM.

For `Nc1nc(Nc2ccc3c(c2)OCCO3)n(C(=O)c2ccc(OCCC3OCCO3)cc2)n1` [compound 213], which IC50 [3] is on record?
Its IC50 is over 20 µM.

Which IC50 [4] does the source give for `Nc1nc(Nc2ccc3c(c2)OCCO3)nn1C(=O)c1ccc(OCCC2OCCO2)cc1` [compound 214] here?
The IC50 was 1 to 10 µM.

For `Cc1cccc(C(=O)n2nc(Nc3ccc4c(c3)NCCO4)nc2N)c1` [compound 215, 5-amino-3-[(3,4-dihydrobenzo[1,4]oxazin-6-yl)amino]-1-(3-methylphenyl)carbonyl-1H-1,2,4-triazole], which IC50 [2] is on record?
Its IC50 is over 20 µM.

How did the IC50 [4] turn out when `COCOc1cccc(Nc2nc(N)n(C(=O)c3cccc(C)c3)n2)c1` [compound 216, 5-amino-3-(3-methoxymethoxy)phenylamino-1-(3-methylphenyl)carbonyl-1H-1,2,4-triazole] was run?
The IC50 was over 20 µM.

With `Nc1nc(Nc2ccc(Cl)cc2)nn1C(=O)c1ccc(Cl)cc1` [compound 217, 5-amino-3-(4-chlorophenyl)amino-1-(4-chlorophenyl)carbonyl-1H-1,2,4-triazole] as the compound, how does the IC50 [4] read?
Its IC50 is over 20 µM.

How did the IC50 [4] turn out when `Nc1nc(Nc2ccc(Br)cc2)nn1C(=O)c1ccc(Cl)cc1` [compound 218, 5-amino-3-(4-bromophenyl)amino-1-(4-chlorophenyl)carbonyl-1H-1,2,4-triazole] was run?
The IC50 was 1 to 10 µM.

`CCOC(=O)c1cc2cc(Nc3nc(N)n(C(=O)c4cccc(C)c4)n3)ccc2o1` [compound 219, 5-amino-3-[2-(ethoxycarbonyl)benzofuran-5-yl]amino-1-(3-methylphenyl)carbonyl-1H-1,2,4-triazole] was tested. Which IC50 [2] did it give?
The IC50 was 1 to 10 µM.

For `Cc1cccc(C(=O)n2nc(Nc3cccnc3)nc2N)c1` [compound 220, 5-amino-1-(3-methylphenyl)carbonyl-3-(pyridin-3-yl)amino-1H-1,2,4-triazole], which IC50 [2] is on record?
Its IC50 is over 20 µM.

`Cc1cccc(C(=O)n2nc(Nc3cccc(OCC(=O)OC(C)(C)C)c3)nc2N)c1` [compound 221, 5-amino-1-(3-methylphenyl)carbonyl-3-[(3-tert-butoxycarbonylmethoxy)phenyl]amino-1H-1,2,4-triazole] was tested. Which IC50 [4] did it give?
The IC50 was 1 to 10 µM.

Which IC50 [2] does the source give for `Cc1cccc(C(=O)n2nc(Nc3ccc4nn(C)cc4c3)nc2N)c1` [compound 222, 5-amino-3-(2-methyl-2H-indazol-5yl)amino-1-(3-methylphenyl)carbonyl-1H-1,2,4-triazole] here?
The IC50 was over 20 µM.

For `Cc1cccc(C(=O)n2nc(Nc3cccc(OCC(=O)NCCOC4CCCCO4)c3)nc2N)c1` (stereo not drawn) [compound 223], which IC50 [4] is on record?
The IC50 was 1 to 10 µM.

`Cc1cccc(C(=O)n2nc(Nc3cccc(OCC(=O)O)c3)nc2N)c1` [compound 224, 5-amino-3-(3-hydroxycarbonylmethoxy)phenylamino-1-(3-methylphenyl)carbonyl-1H-1,2,4-triazole] was tested. Which IC50 [4] did it give?
The IC50 was over 20 µM.

`Cc1cccc(C(=O)n2nc(Nc3cccc(OCC(=O)NCCO)c3)nc2N)c1` [compound 225, 5-amino-3-[3-((2-hydroxyethyl)aminocarbonylmethoxy)phenyl]amino-1-(3-methylphenyl)carbonyl-1H-1,2,4-triazole] was tested. Which IC50 [4] did it give?
The IC50 was 1 to 10 µM.

How did the IC50 [4] turn out when `Nc1nc(Nc2ccc3c(c2)OCCO3)nn1C(=O)c1ccc(OCCN2CCCCC2)cc1` [compound 226] was run?
The IC50 was 1 to 10 µM.

Which IC50 [2] does the source give for `Cc1cccc(C(=O)n2nc(Nc3ccc4c(cnn4C)c3)nc2N)c1` [compound 227, 5-amino-3-[1-methyl-1H-indazol-5-yl]amino-1-(3-methylphenyl)carbonyl-1H-1,2,4-triazole] here?
Its IC50 is 1 to 10 µM.

For `Nc1nc(Nc2ccc3c(c2)OCCO3)nn1C(=O)c1cccc(OCC(F)(F)F)c1` [compound 228, 5-amino-3-(1,4-benzodioxan-6-yl)amino-1-(3-(2,2,2-trifluoroethoxy)phenyl)carbonyl-1H-1,2,4-triazole], which IC50 [4] is on record?
The IC50 was over 20 µM.

For `Cc1cccc(C(=O)n2nc(Nc3ccc4occc4c3)nc2N)c1` [compound 229, 5-amino-3-(benzofuran-5-yl)amino-1-(3-methylphenyl)carbonyl-1H-1,2,4-triazole], which IC50 [2] is on record?
The IC50 was 1 to 10 µM.

With `Nc1nc(Nc2ccc3c(c2)OCCO3)nn1C(=O)c1ccc(OCC(F)(F)F)cc1` [compound 230, 5-amino-3-(1,4-benzodioxan-6-yl)amino-1-(4-(2,2,2-trifluoroethoxy)phenyl)carbonyl-1H-1,2,4-triazole] as the compound, how does the IC50 [4] read?
The IC50 was over 20 µM.

`NC(=O)COc1cccc(C(=O)n2nc(Nc3ccc4c(c3)OCCO4)nc2N)c1` [compound 231, 5-amino-1-(3-aminocarbonylmethoxy)phenylcarbonyl-3-(1,4-benzodioxan-6-yl)amino-1H-1,2,4-triazole] was tested. Which IC50 [4] did it give?
Its IC50 is over 20 µM.

Which IC50 [4] does the source give for `CC(C)c1ccc(C(=O)n2nc(Nc3ccc4c(c3)OCCO4)nc2N)cc1` [compound 232, 5-amino-3-(1,4-benzodioxan-6-yl)amino-1-(4-iso-propylphenyl)carbonyl-1H-1,2,4-triazole] here?
The IC50 was 1 to 10 µM.

For `CC(C)c1ccc(C(=O)n2nc(N)nc2Nc2ccc3c(c2)OCCO3)cc1` [compound 233, 3-amino-5-(1,4-benzodioxan-6-yl)amino-1-(4-iso-propylphenyl)carbonyl-1H-1,2,4-triazole], which IC50 [3] is on record?
The IC50 was over 20 µM.

For `Cc1ccc(C(=O)n2nc(Nc3ccc4c(c3)OCCO4)nc2N)cc1C` [compound 234, 5-amino-1-(3,4-dimethylphenyl)carbonyl-3-(1,4-benzodioxan-6-yl)amino-1H-1,2,4-triazole], which IC50 [4] is on record?
Its IC50 is 1 to 10 µM.

`Cc1cccc(C(=O)n2nc(Nc3cccc(OCS(C)(=O)=O)c3)nc2N)c1` [compound 235, 5-amino-1-(3-methylphenyl)carbonyl-3-[3-(methylsulfonylmethoxy)phenyl]amino-1H-1,2,4-triazole] was tested. Which IC50 [4] did it give?
The IC50 was 1 to 10 µM.

How did the IC50 [3] turn out when `Cc1ccc(C(=O)n2nc(N)nc2Nc2ccc3c(c2)OCCO3)cc1C` [compound 236, 3-amino-1-(3,4-dimethylphenyl)carbonyl-5-(1,4-benzodioxan-6-yl)amino-1H-1,2,4-triazole] was run?
Its IC50 is over 20 µM.

Which IC50 [4] does the source give for `CSc1ccc(C(=O)n2nc(Nc3ccc4c(c3)OCCO4)nc2N)cc1` [compound 237, 5-amino-3-(1,4-benzodioxan-6-yl)amino-1-(4-thiomethylphenyl)carbonyl-1H-1,2,4-triazole] here?
The IC50 was 1 to 10 µM.

`CSc1ccc(C(=O)n2nc(N)nc2Nc2ccc3c(c2)OCCO3)cc1` [compound 238, 3-amino-5-(1,4-benzodioxan-6-yl)amino-1-(4-thiomethylphenyl)carbonyl-1H-1,2,4-triazole] was tested. Which IC50 [3] did it give?
Its IC50 is over 20 µM.

With `Cc1cc(C)cc(C(=O)n2nc(Nc3ccc4c(c3)OCCO4)nc2N)c1` [compound 239, 5-amino-3-(1,4-benzodioxan-6-yl)amino-1-(3,5-dimethylphenyl)carbonyl-1H-1,2,4-triazole] as the compound, how does the IC50 (inhibition of Axl activity, phospho-Akt in-cell Western assay, Table 1) read?
Its IC50 is 1 to 10 µM.
